We go through two molecules from US20250319206A1, “CRISPR/CAS GENE EDITING OF NEH4 AND/OR NEH5 DOMAINS IN NRF2” (Christina Care Gene Editing Institute, Inc., priority 2024, published 2025).

In one series the test system is Panc-1 cells. Briefly: Cell viability with gemcitabine, CellTiter-Glo 2.0, Panc-1 cells. The series is classed as cell-based, Human. As to conditions: naïve (unedited) Panc-1 cells, 72 hours. The protocol: Wildtype and transfected Panc-1 cells were plated to 24 well plates (n=5) at 50,000 cells per well and placed in incubator for 24 hours. The cells were then treated with either Gemcitabine (Selleckchem, Cat. S1714) or DMSO (Thermo Fisher, Cat. D12345). Cells treated with Gemcitabine were treated at one of the following concentrations: 0 μM, 2.5 μM, 5 μM, 25 μM while cells treated with DMSO were treated at: 0%, 0.025%, 0.05%, or 0.25%. Cells remained in Gemcitabine or DMSO for 72 hours before being evaluated using CellTiter-Glo 2.0 Cell Viability Assay (Promega, Cat. G9241).
Since our long-term objective is to develop an effective genetic treatment that would augment standard care, we decided to examine the possibility that we could restore sensitivity to gemcitabine by genetic editing of NRF2 in gemcitabine resistant Panc1 cells. We are using gemcitabine as a selection system to determine if gene editing at some level, can help restore tumor cell killing. We established the kill curve of Panc1 unedited cells by gemcitabine under our standard reaction conditions to serve as a baseline. […] Again, after 72 hours, each cell population was exposed to gemcitabine for an additional 72 hours and thereafter cell viability of the treated and untreated cells was measured using the Cell Titer 2.0 viability assay (Promega, Madison, WI, USA). […]

A further series has as its system NRF2. The experiment in a line: NRF2 western blot in Panc-1 cells. As to conditions: edited Panc-1 populations vs unedited, GAPDH loading control. Format: cell-based, Human. How it is done:
Panc-1 cell pellets were collected using a standard RIPA lysis buffer containing protease inhibitor cocktail. Total protein concentration of collected cells was then determined using BCA Protein Assay kit (Pierce, Rockford, IL, USA). The samples were boiled at 95° C. for 10 minutes and then underwent SDS-PAGE on a 10% Mini-PROTEAN TGX Stain-free Protein Gel (BioRad, Cat. 4568033) for 90 min at 100 V. The gel was then transferred to a nitrocellulose membrane using Trans-Blot Turbo Transfer Systems (BioRad, Hercules, CA, USA) with Trans-Blot Turbo RTA Mini 0.2 μm Nitrocellulose Transfer Kit (BioRad Cat. 1704158), mixed molecular weight program, 10 minutes. The blot was placed in 5% milk and blocked at room temperature on shaker for 2 hours. Incubation in primary NRF2 antibody was done overnight at 4° C. on shaker (1:1,000, Abcam ab62352). Membrane was then incubated at room temperature on shaker for 1 hour in NRF2 secondary (1:10,000, Abcam ab205718). The SuperSignal West Dura Extended Duration ECL (Pierce) kit was used on the LI-COR Odyssey FC to visualize bands. […]

Turning to `Nc1ccn([C@@H]2O[C@H](CO)[C@@H](O)C2(F)F)c(=O)n1` [gemcitabine, reference compound], the “concentration of drug to achieve 75% killing” value in the series with Panc-1 cells is around 100 µM.
As to “sg5: gRNA targeting exon 3 of NRF2; CCTCATTGTCATCTACAAAC GGG (guide CCTCATTGTCATCTACAAACGGG; listed as DNA, chemistry not given here)”, the NRF2 protein knock down entry in the series with NRF2 is listed as “significant knockdown of protein”.
